Laboratory results from patent publication US20050256037A1, “Antibacterial amide macrocyles” (Bayer HealthCare AG, priority 2003, published 2005).
≈ marks a conversion by molar mass, not a printed value. Counter-ions that a name gives are not always drawn. Like-named read-outs stand apart in the source and are kept apart here. Marks after values point to notes of the source that are not given here.

Legend:
Format in all cases: cell-based
S. aureus T17 [1] = assay: MIC, liquid dilution test in minimal medium (96-well microtitre plate); conditions: Staphylococcus aureus, T17, read-out: MIC S. aureus T17
Experimental: (§1) Determination of the Minimum Inhibitory Concentration (MIC)
(§2) The minimum inhibitory concentration (MIC) is the minimum concentration of an antibiotic with which the growth of a test microbe is inhibited over 18-24 h. The inhibitor concentration can in these cases be determined by standard microbiological methods (see, for example, The National Committee for Clinical Laboratory Standards. Methods for dilution antimicrobial susceptibility tests for bacteria that grow aerobically; approved standard-fifth edition. NCCLS document M7-A5 [ISBN 1-56238-394-9]. NCCLS, 940 West Valley Road, Suite 1400, Wayne, Pa. 19087-1898 USA, 2000). The MIC of the compounds of the invention is determined in the liquid dilution test on the 96-well microtitre plate scale. The bacterial microbes are cultivated in a minimal medium (18.5 mM Na2HPO4, 5.7 mM KH2PO4, 9.3 mM NH4Cl, 2.8 mM MgSO4, 17.1 mM NaCl, 0.033 μg/ml thiamine hydrochloride, 1.2 μg/ml nicotinic acid, 0.003 μg/ml biotin, 1% glucose, 25 μg/ml of each proteinogenic amino acid with the exception of phenylalanine; [H.-P. Kroll; unpublished]) with addition of 0.4% BH broth (test medium). In the case of Enterococcus faecium L4001, heat-inactivated fetal calf serum (FCS; GibcoBRL, Germany) is added to the test medium in a final concentration of 10%. Overnight cultures of the test microbes are diluted to an OD578 of 0.001 (to 0.01 in the case of enterococci) in fresh test medium, and incubated 1:1 with dilutions of the test substances (1:2 dilution steps) in test medium (200 μl final volume). The cultures are incubated at 37° C. for 18-24 hours; enterococci in the presence of 5% CO2.
(§3) The lowest substance concentration in each case at which bacterial growth was no longer visible is defined as the MIC. […] The compounds show a graded antibacterial effect against most of the test microbes.
The S. aureus strain T17 is isolated in vivo. CFW1 mice are infected intraperitoneally with 4×10^7 S. aureus 133 cells per mouse. 0.5 h after the infection, the animals are treated intravenously with 50 mg/kg biphenomycin B. The kidneys are removed from the surviving animals on day 3 after the infection. After homogenization of the organs, the homogenates are plated out as described for RN4220Bi^R on antibiotic-free and antibiotic-containing agar plates and incubated at 37° C. overnight. […] About 20 of these colonies are tested for the biphenomycin B MIC, and a colony with an MIC of >50 μM is selected for further cultivation, and the strain is referred to a T17.

S. aureus 133 = assay: Rate of spontaneous resistance
Experimental: Determination of the Rates of Spontaneous Resistance to S. aureus
The spontaneous resistance rates for the compounds of the invention are determined as follows: the bacterial microbes are cultivated in 30 ml of a minimal medium (18.5 mM Na2HPO4, 5.7 mM KH2PO4, 9.3 mM NH4Cl, 2.8 mM MgSO4, 17.1 mM NaCl, 0.033 μg/ml thiamine hydrochloride, 1.2 μg/ml nicotinic acid, 0.003 μg/ml biotin, 1% glucose, 25 μg/ml of each proteinogenic amino acid with the addition of 0.4% BH broth) at 37° C. overnight, centrifuged at 6000×g for 10 min and resuspended in 2 ml of phosphate-buffered physiological NaCl solution (about 2×10^9 microbes/ml). […] The resulting colonies (cfu) are counted.

S. aureus E33 [2] = assay: MIC, liquid dilution test in minimal medium (96-well microtitre plate); conditions: Staphylococcus aureus
Experimental: as §1, §2, §3

E. faecium L4001 [3] = assay: as above; conditions: Enterococcus faecium
Experimental: as §1, §2, §3

S. aureus T17 [4] = assay: MIC, alternative method: agar dilution test with 20% defibrinated horse blood; conditions: Staphylococcus aureus
Experimental: (§4) Alternative Method for Determining the Minimum Inhibitory Concentration (MIC)
(§5) The minimum inhibitory concentration (MIC) is the minimum concentration of an antibiotic with which the growth of a test microbe is inhibited over 18-24 h. The inhibitor concentration can be determined by standard microbiological methods using modified medium in an agar dilution test (see, for example, the National Committee for Clinical Laboratory Standards. Methods for dilution antimicrobial susceptibility tests for bacteria that grow aerobically; approved standard-fifth edition. NCCLS document M7-A5 [ISBN 1-56238-394-9]. NCCLS, 940 West Valley Road, Suite 1400, Wayne, Pa. 19087-1898 USA, 2000). The bacterial microbes are cultivated on 1.5% agar plates containing 20% defibrinated horse blood. The test microbes, which are incubated on Columbia blood agar plates (Becton-Dickinson) overnight, are diluted in PBS, adjusted to a microbe count of about 5×10^5 microbes/ml and placed as drops (1-3 μl) on test plates. The test substances contain various dilutions of the test substances (1:2 dilution stages). The cultures are incubated at 37° C. in the presence of 5% CO2 for 18-24 hours.
(§6) The lowest concentration of each substance at which no visible bacterial growth occurs is defined as the MIC and is reported in μg/ml.

S. aureus E33 [5] = assay: as above; conditions: Staphylococcus aureus
Experimental: as §4, §5, §6

E. faecium L4001 [6] = assay: as above; conditions: Enterococcus faecium
Experimental: as §4, §5, §6

[7] = E33, read-out: MIC S. aureus E33
[8] = L4001, read-out: MIC E. faecium L4001
[9] = T17, read-out: MIC S. aureus T17

Structure (SMILES)	MIC (S. aureus T17 [1]) [µM]	Rate of spontaneous resistance S. aureus 133 (S. aureus 133; 10 × MIC)	MIC (S. aureus E33 [2]; [7]) [µM]	MIC (E. faecium L4001 [3]; [8]) [µM]	MIC (S. aureus T17 [4]; [9]) [µg/mL]	MIC (S. aureus E33 [5]; [7]) [µg/mL]	MIC (E. faecium L4001 [6]; [8]) [µg/mL]	Rate of spontaneous resistance S. aureus 133 (S. aureus 133)	MIC (S. aureus E33 [2]; E33, Table A, liquid dilution, 18-24 h, 37° C., read-out: MIC S. aureus E33) [µM]	MIC (E. faecium L4001 [3]; L4001, Table A, liquid dilution, 10% FCS, 5% CO2, read-out: MIC E. faecium L4001) [µM]	MIC (S. aureus T17 [4]; T17, Table B, agar dilution, 20% defibrinated horse blood, read-out: MIC S. aureus T17) [µg/mL]	MIC (S. aureus E33 [5]; E33, Table B, agar dilution, 20% defibrinated horse blood, read-out: MIC S. aureus E33) [µg/mL]	MIC (E. faecium L4001 [6]; L4001, Table B, agar dilution, 20% defibrinated horse blood, read-out: MIC E. faecium L4001) [µg/mL]
CN1C(=O)[C@H](C[C@@H](O)CN)NC(=O)[C@@H](N)Cc2cc(ccc2O)-c2ccc(O)c(c2)C[C@H]1C(=O)NCCN [Example 1, (8S,11S,14S)-14-amino-N-(2-aminoethyl)-11-[(2R)-3-amino-2-hydroxypropyl]-5,17-dihydroxy-9-methyl-10,13-dioxo-9,12-diazatricyclo[14.3.1.1.^2,6]henicosa-1(20),2(21),3,5,16,18-hexaene-8-carboxamide, trihydrochloride]	3.1	<4 × 10^−8	3.1	12.5	4	4	16						
NCCC[C@@H]1NC(=O)[C@@H](N)Cc2cc(ccc2O)-c2ccc(O)c(c2)C[C@@H](C(=O)NCCN)NC1=O [Example 6, (8S,11S,14S)-14-amino-N-(2-aminoethyl)-11-(3-aminopropyl)-5,17-dihydroxy-10,1 3-dioxo-9,12-diazatricyclo[14.3.1.1^2,6]henicosa-1(20),2(21),3,5,16,18-hexaene-8-carboxamide]	3.1 (≈ 1.55 µg/mL)	<8 × 10^−9	3.1 (≈ 1.55 µg/mL)	> 50	2 (≈ 4.01 µM)	0.5 (≈ 1 µM)	8 (≈ 16 µM)	<8 × 10^−9*					
NC[C@H](O)C[C@@H]1NC(=O)[C@@H](N)Cc2cc(ccc2O)-c2ccc(O)c(c2)C[C@@H](C(=O)O)NC1=O [Example 20A, 14(S)-Amino-1(S)-(3-amino-2(R)-hydroxypropyl)-5,17-dihydroxy-10,13-dioxo-9,12-diazatricyclo[14.3.1.1^2,6]henicosa-1(19),2,4,6(21),16(20),17-hexaene-8(S)-carboxylic acid dihydrochloride, reference compound]	> 25	<1.7 × 10^−6							0.1	> 25	> 32	< 0.03	0.5
